Data reported in patent US20080200454A1, “CARBON-LINKED TETRAHYDRO-PYRAZOLO-PYRIDINE MODULATORS OF CATHEPSIN S” (priority 2007, published 2008).
Counter-ions that a name gives are not always drawn.

target: Recombinant human cathepsin S (CatS) (Homo sapiens, UniProt P25774); experiment: Recombinant human cathepsin S (CatS) inhibition assay, fluorogenic substrate Z-Valine-Valine-Arginine-AMC; conditions: not given;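 note: Baculovirus-expressed CatS in pH 5.0 sodium acetate buffer with DTT and NaCl, fluorescence read each minute over 20 min, inhibition derived from rate slope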
Sequence (P25774 115-331): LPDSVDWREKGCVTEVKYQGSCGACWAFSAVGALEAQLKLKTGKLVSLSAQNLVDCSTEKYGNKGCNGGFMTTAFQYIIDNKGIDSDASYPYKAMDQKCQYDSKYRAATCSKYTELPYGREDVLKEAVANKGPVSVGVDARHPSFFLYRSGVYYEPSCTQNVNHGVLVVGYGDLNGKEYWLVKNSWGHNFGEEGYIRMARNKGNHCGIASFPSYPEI

Row | SMILES | IC50 [nM]
1 | NC(=O)N1CCc2c(c(-c3ccc(Cl)c(C#Cc4ccc(Cl)cc4)c3)nn2C[C@@H](O)CN2CCC(C3CCNCC3)CC2)C1 [Example 238, 1-[(2S)-3-(4,4′-Bipiperidin-1-yl)-2-hydroxypropyl]-3-{4-chloro-3-[(4-chlorophenyl)ethynyl]phenyl}-1,4,6,7-tetrahydro-5H-pyrazolo[4,3-c]pyridine-5-carboxamide] | 3
2 | CS(=O)(=O)N1CCc2c(c(-c3ccc(Cl)c(CCc4ccc(CNCc5ccc(Cl)cc5)cc4)c3)nn2CCCN2CCN(c3ccccc3)CC2)C1 [Example 395, 1-{4-[2-(2-Chloro-5-{5-(methylsulfonyl)-1-[3-(4-phenylpiperazin-1-yl)propyl]-4,5,6,7-tetrahydro-1H-pyrazolo[4,3-c]pyridin-3-yl}phenyl)ethyl]phenyl}-N-[(4-chlorophenyl)methyl]methanamine] | 20
3 | CC(C)CC#Cc1cc(-c2nn(C[C@@H](O)CN3CCC(C4CCN(C(=O)OC(C)(C)C)CC4)CC3)c3c2CN(S(C)(=O)=O)CC3)ccc1Cl [Example 231, 1,1-Dimethylethyl 1′-[(2S)-3-{3-[4-chloro-3-(4-methylpent-1-yn-1-yl)phenyl]-5-(methylsulfonyl)-4,5,6,7-tetrahydro-1H-pyrazolo[4,3-c]pyridin-1-yl}-2-hydroxypropyl]-4,4′-bipiperidine-1-carboxylate] | 2690
4 | CN(C)c1ccc2c(n1)n(C1CCN(CC(O)Cn3nc(-c4ccc(C(F)(F)F)c(C#Cc5ccc(Cl)cc5)c4)c4c3CCN(S(C)(=O)=O)C4)CC1)c(=O)n2C (centres unmarked) [Example 120, 3-[1-(3-{3-[3-(4-Chloro-phenylethynyl)-4-trifluoromethyl-phenyl]-5-methanesulfonyl-4,5,6,7-tetrahydro-pyrazolo[4,3-c]pyridin-1-yl}-2-hydroxy-propyl)-piperidin-4-yl]-5-dimethylamino-1-methyl-1,3-dihydro-imidazo[4,5-b]pyridin-2-one] | 30
5 | CS(=O)(=O)N1CCc2c(c(-c3ccc(Cl)c(CCc4ccc(Cl)cc4)c3)nn2C[C@@H](O)CN2CCC(C3CCNCC3)CC2)C1 [Example 246, (2S)-1-(4,4′-Bipiperidin-1-yl)-3-[3-{4-chloro-3-[2-(4-chlorophenyl)ethyl]phenyl}-5-(methylsulfonyl)-4,5,6,7-tetrahydro-1H-pyrazolo[4,3-c]pyridin-1-yl]propan-2-ol] | 10
6 | NC(=O)N1CCc2c(c(-c3ccc(Cl)c(C#Cc4ccc(C(=O)NCc5ccc(Cl)cc5)cc4)c3)nn2CCCN2CCSCC2)C1 [Example 547, 3-(4-Chloro-3-{[4-({[(4-chlorophenyl)methyl]amino}carbonyl)phenyl]ethynyl}phenyl)-1-(3-thiomorpholin-4-ylpropyl)-1,4,6,7-tetrahydro-5H-pyrazolo[4,3-c]pyridine-5-carboxamide] | 120
7 | CS(=O)(=O)N1CCc2c(c(-c3ccc(Cl)c(C#Cc4ccc(CNCc5ccc(Cl)cc5)cc4)c3)nn2CCCN2CC3(COC3)C2)C1 [Example 468, 1-{4-[(2-Chloro-5-{5-(methylsulfonyl)-1-[3-(2-oxa-6-azaspiro[3.3]hept-6-yl)propyl]-4,5,6,7-tetrahydro-1H-pyrazolo[4,3-c]pyridin-3-yl}phenyl)ethynyl]phenyl}-N-[(4-chlorophenyl)methyl]methanamine] | 190
8 | NC(=O)C(=O)N1CCc2c(c(-c3ccc(Cl)c(C#Cc4ccc(CNCc5ccc(Cl)cc5)cc4)c3)nn2CCCN2CCSCC2)C1 [Example 414, 2-[3-(4-Chloro-3-{[4-({[(4-chlorophenyl)methyl]amino}methyl)phenyl]ethynyl}phenyl)-1-(3-thiomorpholin-4-ylpropyl)-1,4,6,7-tetrahydro-5H-pyrazolo[4,3-c]pyridin-5-yl]-2-oxoacetamide] | 30
9 | NC(=O)N1CCc2c(c(-c3ccc(Cl)c(C#Cc4ccc(CNCc5ccc(Cl)cc5)cc4)c3)nn2CCCN2CCOCC2)C1 [Example 151, 3-(4-Chloro-3-{[4-({[(4-chlorophenyl)methyl]amino}methyl)phenyl]ethynyl}phenyl)-1-(3-morpholin-4-ylpropyl)-1,4,6,7-tetrahydro-5H-pyrazolo[4,3-c]pyridine-5-carboxamide] | 90
10 | CS(=O)(=O)N1CCc2c(c(-c3ccc(Cl)c(C#Cc4ccc(CC(=O)O)cc4)c3)nn2CCCN2CCOCC2)C1 [Example 15, (4-{2-Chloro-5-[5-methanesulfonyl-1-(3-morpholin-4-yl-propyl)-4,5,6,7-tetrahydro-1H-pyrazolo[4,3-c]pyridin-3-yl]-phenylethynyl}-phenyl)-acetic acid, trifluoroacetic acid salt] | 150
11 | NC(=O)N1CCc2c(c(-c3ccc(Cl)c(C#Cc4ccc(CN5CCC(N6CCCC6=O)CC5)cc4)c3)nn2CCCN2CCSCC2)C1 [Example 165, 3-{4-Chloro-3-[(4-{[4-(2-oxopyrrolidin-1-yl)piperidin-1-yl]methyl}phenyl)ethynyl]phenyl}-1-(3-thiomorpholin-4-ylpropyl)-1,4,6,7-tetrahydro-5H-pyrazolo[4,3-c]pyridine-5-carboxamide] | 830
12 | CS(=O)(=O)N1CCc2c(c(-c3ccc(Cl)c(C#Cc4cccc(CC(=O)O)c4)c3)nn2CCCN2CCOCC2)C1 [Example 16, (3-{2-Chloro-5-[5-methanesulfonyl-1-(3-morpholin-4-yl-propyl)-4,5,6,7-tetrahydro-1H-pyrazolo[4,3-c]pyridin-3-yl]-phenylethynyl}-phenyl)-acetic acid] | 1150
13 | CS(=O)(=O)N1CCc2c(c(-c3ccc(Cl)c(C#Cc4ccc(CNCc5ccc(Cl)cc5)cc4)c3)nn2C[C@H](O)CN2CCOCC2)C1 [Example 264, (R)-1-[3-(4-Chloro-3-{4-[(4-chloro-benzylamino)-methyl]-phenylethynyl}-phenyl)-5-methanesulfonyl-4,5,6,7-tetrahydro-pyrazolo[4,3-c]pyridin-1-yl]-3-morpholin-4-yl-propan-2-ol] | 370
14 | CS(=O)(=O)N1CCc2c(c(-c3ccc(Cl)c(C#Cc4ccc(Cl)cc4)c3)nn2CC(O)CN2CCNCC2)C1 (centres unmarked) [Example 132, 1-{3-[4-Chloro-3-(4-chloro-phenylethynyl)-phenyl]-5-methanesulfonyl-4,5,6,7-tetrahydro-pyrazolo[4,3-c]pyridin-1-yl}-3-piperazin-1-yl-propan-2-ol] | 390
15 | COc1ccc(CNCc2ccc(C#Cc3cc(-c4nn(CCCN5CCOCC5)c5c4CN(S(C)(=O)=O)CC5)ccc3Cl)cc2)cc1 [Example 339, 1-[4-({2-Chloro-5-[5-(methylsulfonyl)-1-(3-morpholin-4-ylpropyl)-4,5,6,7-tetrahydro-1H-pyrazolo[4,3-c]pyridin-3-yl]phenyl}ethynyl)phenyl]-N-{[4-(methyloxy)phenyl]methyl}methanamine] | 230
16 | CS(=O)(=O)N1CCc2c(c(-c3ccc(Cl)c(C#CCN)c3)nn2CCCN2CCOCC2)C1 [Example 303, 3-{2-Chloro-5-[5-(methylsulfonyl)-1-(3-morpholin-4-ylpropyl)-4,5,6,7-tetrahydro-1H-pyrazolo[4,3-c]pyridin-3-yl]phenyl}prop-2-yn-1-amine] | > 20000
17 | CC(C)(C)OC(=O)NCc1cccc(C#Cc2cc(-c3nn(CCCN4CCOCC4)c4c3CN(S(C)(=O)=O)CC4)ccc2Cl)c1 [Example 376, 1,1-Dimethylethyl {[3-({2-chloro-5-[5-(methylsulfonyl)-1-(3-morpholin-4-ylpropyl)-4,5,6,7-tetrahydro-1H-pyrazolo[4,3-c]pyridin-3-yl]phenyl}ethynyl)phenyl]methyl}carbamate] | 1010

same assay, conditions: CatS IC50

Row | SMILES | IC50 [nM]
18 | CCCNCc1cc(C#Cc2cc(-c3nn(CCCN4CCOC[C@@H]4C)c4c3CN(C(=O)C(N)=O)CC4)ccc2Cl)ccc1Cl [Example 270, (S)-2-{3-[4-Chloro-3-(4-chloro-3-propylaminomethyl-phenylethynyl)-phenyl]-1-[3-(3-methyl-morpholin-4-yl)-propyl]-1,4,6,7-tetrahydro-pyrazolo[4,3-c]pyridin-5-yl}-2-oxo-acetamide] | 20
19 | C[C@H]1COCCN1CCCn1nc(-c2ccc(Cl)c(C#Cc3ccc(Cl)c(CNCCO)c3)c2)c2c1CCN(S(C)(=O)=O)C2 [Example 293, 2-({[2-Chloro-5-({2-chloro-5-[1-{3-[(3S)-3-methylmorpholin-4-yl]propyl}-5-(methylsulfonyl)-4,5,6,7-tetrahydro-1H-pyrazolo[4,3-c]pyridin-3-yl]phenyl}ethynyl)phenyl]methyl}amino)ethanol] | 50
20 | C[C@H]1COCCN1CCCn1nc(-c2ccc(Cl)c(C#Cc3ccc(Cl)c(C(=O)NCC4CNC4)c3)c2)c2c1CCN(C(=O)C(N)=O)C2 [Example 598, 5-{[5-(5-[Amino(oxo)acetyl]-1-{3-[(3S)-3-methylmorpholin-4-yl]propyl}-4,5,6,7-tetrahydro-1H-pyrazolo[4,3-c]pyridin-3-yl)-2-chlorophenyl]ethynyl}-N-(azetidin-3-ylmethyl)-2-chlorobenzamide] | 30
21 | C[C@H]1COCCN1CCCn1nc(-c2ccc(Cl)c(C#Cc3ccc(CO)cc3)c2)c2c1CCN(C(=O)C(N)=O)C2 [Example 618, 2-[3-(4-Chloro-3-{[4-(hydroxymethyl)phenyl]ethynyl}phenyl)-1-{3-[(3S)-3-methylmorpholin-4-yl]propyl}-1,4,6,7-tetrahydro-5H-pyrazolo[4,3-c]pyridin-5-yl]-2-oxoacetamide] | 20
22 | CS(=O)(=O)N1CCc2c(c(-c3ccc(Cl)c(C#Cc4cccc(CNCCO)c4)c3)nn2CCCN2CCOCC2)C1 [Example 506, 2-({[3-({2-Chloro-5-[5-(methylsulfonyl)-1-(3-morpholin-4-ylpropyl)-4,5,6,7-tetrahydro-1H-pyrazolo[4,3-c]pyridin-3-yl]phenyl}ethynyl)phenyl]methyl}amino)ethanol] | 520
23 | C[C@H]1COCCN1C[C@H](O)Cn1nc(-c2ccc(Cl)c(C#Cc3ccc(CNCc4ccc(Cl)cc4)cc3)c2)c2c1CCN(C(=O)C(N)=O)C2 [Example 255, 2-{3-(4-Chloro-3-{4-[(4-chloro-benzylamino)-methyl]-phenylethynyl}-phenyl)-1-[(2S)-2-hydroxy-3-((3S)-3-methyl-morpholin-4-yl)-propyl]-1,4,6,7-tetrahydro-pyrazolo[4,3-c]pyridin-5-yl}-2-oxo-acetamide] | 70
